Laboratory results: patent US11931424B2, “Combination MCL-1 inhibitors with anti-body drug conjugates” (Gilead Sciences, Inc., priority 2021, dated 2024)

System: panel of breast cancer cell lines
Assay: Compound A with targeted agents and chemotherapies, 72-hour in vitro proliferation assays
Type: cell-based
Details: 72-hour proliferation
[1] = AU565 cell line, compound A × partner
[2] = BT-20 cell line, compound A × partner
[3] = BT-474 cell line, compound A × partner
[4] = BT-549 cell line, compound A × partner
[5] = CAL-51 cell line, compound A × partner
[6] = CAL-85-1 cell line, compound A × partner
[7] = CAL-120 cell line, compound A × partner
[8] = CAL-148 cell line, compound A × partner
[9] = CAMA-1 cell line, compound A × partner
[10] = DU-4475 cell line, compound A × partner
[11] = EVSA-T cell line, compound A × partner
[12] = MCF7 cells, Compound A × partner agent
[13] = MDA-MB-175-VII cells, Compound A × partner agent
[14] = MDA-MB-231 cells, Compound A × partner agent
[15] = MDA-MB-361 cells, Compound A × partner agent
[16] = MDA-MB-436 cells, Compound A × partner agent
[17] = MDA-MB-453 cells, Compound A × partner agent
[18] = MDA-MB-468 cells, Compound A × partner agent
[19] = SK-BR-3 cells, Compound A × partner agent
[20] = SUM159PT cells, combination of compound A with the named agent
[21] = T47D cells, combination of compound A with the named agent
[22] = ZR-75-1 cells, combination of compound A with the named agent
[23] = ZR-75-30 cells, combination of compound A with the named agent
[24] = HCC1143 cell line, compound A × partner

Structure (SMILES): CO[C@H]1C[C@@H]2CC[C@@H](C)[C@@](O)(O2)C(=O)C(=O)N2CCCC[C@H]2C(=O)O[C@H]([C@H](C)C[C@@H]2CC[C@@H](OCCO)[C@H](OC)C2)CC(=O)[C@H](C)/C=C(\C)[C@@H](O)[C@@H](OC)C(=O)[C@H](C)C[C@H](C)/C=C/C=C/C=C/1C [Everolimus]
- Bliss Volume [1]: 5.68
- HSA volume [1]: 2.64
- Loewe Volume [1]: 3.01
- Synergy Score [1]: 3.02
- Bliss Volume [2]: 8.37
- HSA volume [2]: 8.23
- Loewe Volume [2]: 7.02
- Synergy Score [2]: 11.08
- Bliss Volume [3]: 3.26
- HSA volume [3]: −1.26
- Loewe Volume [3]: −2.71
- Synergy Score [3]: 2.41
- Bliss Volume [4]: 5.93
- HSA volume [4]: 8.22
- Loewe Volume [4]: 7.87
- Synergy Score [4]: 7.35
- Bliss Volume [5]: −2.55
- HSA volume [5]: 0.45
- Loewe Volume [5]: 0.41
- Synergy Score [5]: 1.34
- Bliss Volume [6]: 10.37
- HSA volume [6]: 14.41
- Loewe Volume [6]: 13.60
- Synergy Score [6]: 16.26
- Bliss Volume [7]: −2.79
- HSA volume [7]: −1.61
- Loewe Volume [7]: −1.62
- Synergy Score [7]: 0.53
- Bliss Volume [8]: 5.67
- HSA volume [8]: 9.58
- Loewe Volume [8]: 8.56
- Synergy Score [8]: 18.16
- Bliss Volume [9]: 10.06
- HSA volume [9]: 2.71
- Loewe Volume [9]: 3.20
- Synergy Score [9]: 7.90
- Bliss Volume [10]: 4.29
- HSA volume [10]: 1.94
- Loewe Volume [10]: 0.97
- Synergy Score [10]: 2.43
- Bliss Volume [11]: 10.56
- HSA volume [11]: −0.76
- Loewe Volume [11]: −1.22
- Synergy Score [11]: 1.85
- Bliss Volume (HCC38, compound A × partner): −6.70
- HSA volume (HCC38, compound A × partner): −1.96
- Loewe Volume (HCC38, compound A × partner): −2.56
- Synergy Score (HCC38, compound A × partner): 2.18
- Bliss Volume (HCC70, compound A × partner): 9.56
- HSA volume (HCC70, compound A × partner): 8.83
- Loewe Volume (HCC70, compound A × partner): 6.84
- Synergy Score (HCC70, compound A × partner): 11.30
- Bliss Volume (HCC1143, compound A × partner): 8.68
- HSA volume (HCC1143, compound A × partner): 8.45
- Loewe Volume (HCC1143, compound A × partner): 10.21
- Synergy Score (HCC1143, compound A × partner): 9.36
- Bliss Volume (HCC1569, compound A × partner): 2.35
- HSA volume (HCC1569, compound A × partner): 5.10
- Loewe Volume (HCC1569, compound A × partner): 4.65
- Synergy Score (HCC1569, compound A × partner): 3.45
- Bliss Volume (HCC1806, compound A × partner): 5.19
- HSA volume (HCC1806, compound A × partner): 2.88
- Loewe Volume (HCC1806, compound A × partner): 5.59
- Synergy Score (HCC1806, compound A × partner): 2.52
- Bliss Volume (HCC1937, compound A × partner): 1.96
- HSA volume (HCC1937, compound A × partner): 3.68
- Loewe Volume (HCC1937, compound A × partner): 4.63
- Synergy Score (HCC1937, compound A × partner): 4.89
- Bliss Volume (HCC1954, compound A × partner): 20.04
- HSA volume (HCC1954, compound A × partner): 23.41
- Loewe Volume (HCC1954, compound A × partner): 21.71
- Synergy Score (HCC1954, compound A × partner): 36.09
- Bliss Volume (HCC2218, compound A × partner): −0.77
- HSA volume (HCC2218, compound A × partner): −0.63
- Loewe Volume (HCC2218, compound A × partner): −2.03
- Synergy Score (HCC2218, compound A × partner): 3.37
- Bliss Volume (HDQ-P1, compound A × partner): 6.97
- HSA volume (HDQ-P1, compound A × partner): −1.39
- Loewe Volume (HDQ-P1, compound A × partner): 6.48
- Synergy Score (HDQ-P1, compound A × partner): 2.04
- Bliss Volume (HMC-1-8, compound A × partner): 9.19
- HSA volume (HMC-1-8, compound A × partner): 5.60
- Loewe Volume (HMC-1-8, compound A × partner): 5.97
- Synergy Score (HMC-1-8, compound A × partner): 9.41
- Bliss Volume (JIMT-1, compound A × partner): 5.29
- HSA volume (JIMT-1, compound A × partner): 2.41
- Loewe Volume (JIMT-1, compound A × partner): 1.96
- Synergy Score (JIMT-1, compound A × partner): 1.56
- Best CI (KPL-1, compound A × partner): 0.45
- Best CI Level (KPL-1, compound A × partner): 95
- Bliss Volume (KPL-1, compound A × partner): 2.85
- HSA volume (KPL-1, compound A × partner): 5.14
- Loewe Volume (KPL-1, compound A × partner): 4.93
- Synergy Score (KPL-1, compound A × partner): 6.00
- Bliss Volume [12]: 6.88
- HSA volume [12]: 7.73
- Loewe Volume [12]: 6.93
- Synergy Score [12]: 9.72
- Bliss Volume [13]: 9.10
- HSA volume [13]: 4.72
- Loewe Volume [13]: 4.62
- Synergy Score [13]: 10.26
- Bliss Volume [14]: 0.30
- HSA volume [14]: 2.64
- Loewe Volume [14]: 3.33
- Synergy Score [14]: 2.06
- Bliss Volume [15]: 5.72
- HSA volume [15]: 4.93
- Loewe Volume [15]: 3.91
- Synergy Score [15]: 8.70
- Bliss Volume [16]: 2.45
- HSA volume [16]: 4.01
- Loewe Volume [16]: 3.66
- Synergy Score [16]: 2.25
- Bliss Volume [17]: 3.87
- HSA volume [17]: 0.04
- Loewe Volume [17]: −0.98
- Synergy Score [17]: 5.75
- Bliss Volume [18]: 11.63
- HSA volume [18]: 9.14
- Loewe Volume [18]: 7.97
- Synergy Score [18]: 15.60
- Bliss Volume [19]: 7.76
- HSA volume [19]: 3.46
- Loewe Volume [19]: 2.55
- Synergy Score [19]: 4.58
- Bliss Volume [20]: 0.61
- HSA volume [20]: 1.27
- Loewe Volume [20]: 0.66
- Synergy Score [20]: 1.12
- Bliss Volume [21]: −0.21
- HSA volume [21]: 2.87
- Loewe Volume [21]: 2.69
- Synergy Score [21]: 3.70
- Bliss Volume [22]: 3.52
- HSA volume [22]: 5.12
- Loewe Volume [22]: 4.67
- Synergy Score [22]: 5.68
- Bliss Volume [23]: 3.82
- HSA volume [23]: 4.76
- Loewe Volume [23]: 4.25
- Synergy Score [23]: 7.22

Structure (SMILES): CC1(C)CCC(c2ccc(Cl)cc2)=C(CN2CCN(c3ccc(C(=O)NS(=O)(=O)c4ccc(N[C@H](CCN5CCOCC5)CSc5ccccc5)c(S(=O)(=O)C(F)(F)F)c4)cc3)CC2)C1 [ABT-263]
- Best CI [1]: 0.61
- Bliss Volume [1]: 9.56
- HSA volume [1]: 3.63
- Loewe Volume [1]: 8.42
- Synergy Score [1]: 14.69
- Best CI [2]: 0.05
- Bliss Volume [2]: 36.91
- HSA volume [2]: 37.77
- Loewe Volume [2]: 37.81
- Synergy Score [2]: 84.06
- Best CI [5]: 0.09
- Bliss Volume [5]: 18.29
- HSA volume [5]: 17.50
- Loewe Volume [5]: 18.72
- Synergy Score [5]: 39.59
- Best CI [6]: 0.17
- Bliss Volume [6]: 13.36
- HSA volume [6]: 16.06
- Loewe Volume [6]: 15.97
- Synergy Score [6]: 29.64
- Best CI [7]: 0.21
- Bliss Volume [7]: 15.10
- HSA volume [7]: 15.51
- Loewe Volume [7]: 16.04
- Synergy Score [7]: 24.96
- Best CI [8]: 0.10
- Bliss Volume [8]: 28.25
- HSA volume [8]: 22.50
- Loewe Volume [8]: 27.96
- Synergy Score [8]: 51.82
- Best CI [9]: 0.14
- Bliss Volume [9]: 19.67
- HSA volume [9]: 17.49
- Loewe Volume [9]: 19.32
- Synergy Score [9]: 41.66
- Best CI [10]: 0.48
- Bliss Volume [10]: 24.62
- HSA volume [10]: 22.37
- Loewe Volume [10]: 22.67
- Synergy Score [10]: 35.34
- Best CI [11]: 0.36
- Bliss Volume [11]: 15.42
- HSA volume [11]: 14.19
- Loewe Volume [11]: 14.63
- Synergy Score [11]: 28.16
- Best CI (HCC38, compound A × partner): 0.13
- Bliss Volume (HCC38, compound A × partner): 27.10
- Synergy Score (HCC38, compound A × partner): 37.11
- Best CI (HCC70, compound A × partner): 0.03
- Bliss Volume (HCC70, compound A × partner): 44.63
- HSA volume (HCC70, compound A × partner): 44.49
- Loewe Volume (HCC70, compound A × partner): 44.97
- Synergy Score (HCC70, compound A × partner): 97.06
- Best CI [24]: 0.05
- Bliss Volume [24]: 27.56
- HSA volume [24]: 26.07
- Loewe Volume [24]: 27.51
- Synergy Score [24]: 43.54
- Best CI (HCC1569, compound A × partner): 0.13
- Bliss Volume (HCC1569, compound A × partner): 27.53
- HSA volume (HCC1569, compound A × partner): 24.55
- Loewe Volume (HCC1569, compound A × partner): 26.18
- Synergy Score (HCC1569, compound A × partner): 46.64
- Best CI (HCC1806, compound A × partner): 0.03
- Bliss Volume (HCC1806, compound A × partner): 45.40
- HSA volume (HCC1806, compound A × partner): 46.37
- Loewe Volume (HCC1806, compound A × partner): 46.26
- Synergy Score (HCC1806, compound A × partner): 90.68
- Best CI (HCC1937, compound A × partner): 0.18
- Bliss Volume (HCC1937, compound A × partner): 26.87
- HSA volume (HCC1937, compound A × partner): 22.28
- Loewe Volume (HCC1937, compound A × partner): 26.31
- Synergy Score (HCC1937, compound A × partner): 43.69
- Best CI (HCC1954, compound A × partner): 0.03
- Bliss Volume (HCC1954, compound A × partner): 36.37
- HSA volume (HCC1954, compound A × partner): 36.78
- Loewe Volume (HCC1954, compound A × partner): 37.10
- Synergy Score (HCC1954, compound A × partner): 76.44
- Best CI (HCC2218, compound A × partner): 0.07
- Bliss Volume (HCC2218, compound A × partner): 28.59
- HSA volume (HCC2218, compound A × partner): 29.77
- Loewe Volume (HCC2218, compound A × partner): 28.05
- Synergy Score (HCC2218, compound A × partner): 59.76
- Best CI (HDQ-P1, compound A × partner): 0.09
- Bliss Volume (HDQ-P1, compound A × partner): 27.19
- HSA volume (HDQ-P1, compound A × partner): 27.41
- Loewe Volume (HDQ-P1, compound A × partner): 28.17
- Synergy Score (HDQ-P1, compound A × partner): 52.33
- Best CI (HMC-1-8, compound A × partner): 0.20
- Bliss Volume (HMC-1-8, compound A × partner): 13.21
- HSA volume (HMC-1-8, compound A × partner): 10.36
- Loewe Volume (HMC-1-8, compound A × partner): 11.80
- Synergy Score (HMC-1-8, compound A × partner): 21.09
- Best CI (JIMT-1, compound A × partner): 0.18
- Bliss Volume (JIMT-1, compound A × partner): 18.71
- HSA volume (JIMT-1, compound A × partner): 12.60
- Loewe Volume (JIMT-1, compound A × partner): 14.35
- Synergy Score (JIMT-1, compound A × partner): 19.55
- Best CI (KPL-1, compound A × partner): 0.14
- Synergy Score (KPL-1, compound A × partner): 13.50
